A short description of series [1]: Inhibition of P-gp in mouse EMT6/AR1.0 cells assessed reduction in tritiated daunomycin efflux incubated for 2 hrs by radioactivity based assay. Type of series: cell-based. Particulars: EMT6/AR1, 2 h; call rule not given here.
For a further series, the system named is MCF7. Nature of the series: Cytotoxicity against human MCF7 cells assessed as reduction in cell viability incubated for 72 hrs by MTT assay. Type of series: functional, cell-based. The conditions noted are these: MCF7, 72 h. On the technique in general: Tetrazolium assays rely on reduction of a dye to a coloured formazan, in cell work by metabolically active cells.

Another series relates to A2780. Nature of the series: Cytotoxicity against human A2780 cells assessed as reduction in cell viability incubated for 72 hrs by MTT assay. Particulars: A2780, 72 h.
Another series has as its system HT-29. The experiment in a line: Cytotoxicity against human HT29 cells assessed as reduction in cell viability incubated for 72 hrs by MTT assay. The conditions noted are these: HT-29, 72 h.
In another series the test system is MRC5. Nature of the series: Cytotoxicity against human MRC5 cells assessed as reduction in cell viability incubated for 72 hrs by MTT assay. The conditions noted are these: MRC5, 72 h.
The nature of series [2]: Selectivity index, ratio of IC50 for human MRC5 cells to IC50 for human MCF7 cells. Type of series: toxicity. The conditions noted are these: MRC5 cells versus MCF7 cells, read-out: Ratio IC50.
Series [3] can be described thus: Selectivity index, ratio of IC50 for human MRC5 cells to IC50 for human A2780 cells. Type of series: toxicity. The conditions noted are these: MRC5 cells versus A2780 cells, read-out: Ratio IC50.
Series [4] can be described thus: Selectivity index, ratio of IC50 for human MRC5 cells to IC50 for human HT29 cells. Particulars: MRC5 cells versus HT29 cells, read-out: Ratio IC50. Type of series: toxicity.
Series [5] relates to NCI/ADR-RES. The experiment in a line: Cytotoxicity against human MCF7/ADR cells assessed as reduction in cell viability incubated for 72 hrs by MTT assay.
Series [6] deals with NCI/ADR-RES. Nature of the series: Cytotoxicity against human MCF7/ADR cells assessed as reduction in cell viability incubated for 72 hrs in presence of doxorubicin by MTT assay. Type of series: functional, cell-based.
Series [7] in a line: Reversal of multidrug resistant activity in human MCF7/ADR cells assessed as reversal fold after 72 hrs by MTT assay. Type of series: functional, NCI/ADR-RES.
Series [8] deals with NCI/ADR-RES. Nature of the series: Synergistic cytotoxicity against human MCF7/ADR cells assessed as combination index at 0.25 uM after 72 hrs in presence of 0.25 uM doxorubicin by MTT assay. Type of series: functional.
The test system of series [9] is NCI/ADR-RES. Nature of the series: Synergistic cytotoxicity against human MCF7/ADR cells assessed as combination index at 0.25 uM after 72 hrs in presence of 0.5 uM doxorubicin by MTT assay. Type of series: functional.
In series [10] the test system is NCI/ADR-RES. The experiment in a line: Synergistic cytotoxicity against human MCF7/ADR cells assessed as combination index at 0.25 uM after 72 hrs in presence of 1 uM doxorubicin by MTT assay. Type of series: functional.
For series [11], the system named is NCI/ADR-RES. The experiment in a line: Synergistic cytotoxicity against human MCF7/ADR cells assessed as combination index at 0.5 uM after 72 hrs in presence of 0.25 uM doxorubicin by MTT assay. Type of series: functional.
Series [12] deals with NCI/ADR-RES. The experiment in a line: Synergistic cytotoxicity against human MCF7/ADR cells assessed as combination index at 0.5 uM after 72 hrs in presence of 0.5 uM doxorubicin by MTT assay. Type of series: functional.
Series [13] concerns NCI/ADR-RES. The experiment in a line: Synergistic cytotoxicity against human MCF7/ADR cells assessed as combination index at 0.5 uM after 72 hrs in presence of 1 uM doxorubicin by MTT assay. Type of series: functional.
Series [14] concerns NCI/ADR-RES. The experiment in a line: Synergistic cytotoxicity against human MCF7/ADR cells assessed as combination index at 1 uM after 72 hrs in presence of 0.25 uM doxorubicin by MTT assay. Type of series: functional.
The test system of series [15] is NCI/ADR-RES. The experiment in a line: Synergistic cytotoxicity against human MCF7/ADR cells assessed as combination index at 1 uM after 72 hrs in presence of 0.5 uM doxorubicin by MTT assay. Type of series: functional.
In series [16] the test system is NCI/ADR-RES. The experiment in a line: Synergistic cytotoxicity against human MCF7/ADR cells assessed as combination index at 1 uM after 72 hrs in presence of 1 uM doxorubicin by MTT assay. Type of series: functional.
Series [17] has as its target ATP-dependent translocase ABCB1 (Homo sapiens, UniProt P08183). The experiment in a line: Inhibition of P-gp activity in human MCF7/ADR cells after 72 hrs by RT-PCR analysis. Type of series: cell-based. Particulars: nci/adr-res, at 125 to 1000 nM, dose 125-1000 nM.
Series [18] addresses T1, P-gp (ABCB1) (Homo sapiens, UniProt P08183). Nature of the series: Inhibition of P-gp activity in human MCF7/ADR cells at 125 nM after 72 hrs by RT-PCR analysis relative to control. Type of series: cell-based, NCI/ADR-RES.
The target in series [19] is T1, P-gp (ABCB1). Nature of the series: Inhibition of P-gp activity in human MCF7/ADR cells at 250 nM after 72 hrs by RT-PCR analysis relative to control. Type of series: cell-based, NCI/ADR-RES. The conditions noted are these: MCF7/ADR cells.
The target in series [20] is T1, P-gp (ABCB1). The experiment in a line: Inhibition of P-gp activity in human MCF7/ADR cells at 500 nM after 72 hrs by RT-PCR analysis relative to control. Type of series: cell-based, NCI/ADR-RES. Particulars: MCF7/ADR cells.
Series [21] deals with T1, P-gp (ABCB1). Nature of the series: Inhibition of P-gp activity in human MCF7/ADR cells at 1000 nM after 72 hrs by RT-PCR analysis relative to control. Type of series: cell-based, NCI/ADR-RES. Particulars: MCF7/ADR cells.

pIC50: −log10 of the molar value.

The source of these data is ChEMBL document CHEMBL4819064, “Discovery of new pyrimidopyrrolizine/indolizine-based derivatives as P-glycoprotein inhibitors: Design, synthesis, cytotoxicity, and MDR reversal activities” (Eur J Med Chem, 2021).

T1 sequence (P08183 whole entry): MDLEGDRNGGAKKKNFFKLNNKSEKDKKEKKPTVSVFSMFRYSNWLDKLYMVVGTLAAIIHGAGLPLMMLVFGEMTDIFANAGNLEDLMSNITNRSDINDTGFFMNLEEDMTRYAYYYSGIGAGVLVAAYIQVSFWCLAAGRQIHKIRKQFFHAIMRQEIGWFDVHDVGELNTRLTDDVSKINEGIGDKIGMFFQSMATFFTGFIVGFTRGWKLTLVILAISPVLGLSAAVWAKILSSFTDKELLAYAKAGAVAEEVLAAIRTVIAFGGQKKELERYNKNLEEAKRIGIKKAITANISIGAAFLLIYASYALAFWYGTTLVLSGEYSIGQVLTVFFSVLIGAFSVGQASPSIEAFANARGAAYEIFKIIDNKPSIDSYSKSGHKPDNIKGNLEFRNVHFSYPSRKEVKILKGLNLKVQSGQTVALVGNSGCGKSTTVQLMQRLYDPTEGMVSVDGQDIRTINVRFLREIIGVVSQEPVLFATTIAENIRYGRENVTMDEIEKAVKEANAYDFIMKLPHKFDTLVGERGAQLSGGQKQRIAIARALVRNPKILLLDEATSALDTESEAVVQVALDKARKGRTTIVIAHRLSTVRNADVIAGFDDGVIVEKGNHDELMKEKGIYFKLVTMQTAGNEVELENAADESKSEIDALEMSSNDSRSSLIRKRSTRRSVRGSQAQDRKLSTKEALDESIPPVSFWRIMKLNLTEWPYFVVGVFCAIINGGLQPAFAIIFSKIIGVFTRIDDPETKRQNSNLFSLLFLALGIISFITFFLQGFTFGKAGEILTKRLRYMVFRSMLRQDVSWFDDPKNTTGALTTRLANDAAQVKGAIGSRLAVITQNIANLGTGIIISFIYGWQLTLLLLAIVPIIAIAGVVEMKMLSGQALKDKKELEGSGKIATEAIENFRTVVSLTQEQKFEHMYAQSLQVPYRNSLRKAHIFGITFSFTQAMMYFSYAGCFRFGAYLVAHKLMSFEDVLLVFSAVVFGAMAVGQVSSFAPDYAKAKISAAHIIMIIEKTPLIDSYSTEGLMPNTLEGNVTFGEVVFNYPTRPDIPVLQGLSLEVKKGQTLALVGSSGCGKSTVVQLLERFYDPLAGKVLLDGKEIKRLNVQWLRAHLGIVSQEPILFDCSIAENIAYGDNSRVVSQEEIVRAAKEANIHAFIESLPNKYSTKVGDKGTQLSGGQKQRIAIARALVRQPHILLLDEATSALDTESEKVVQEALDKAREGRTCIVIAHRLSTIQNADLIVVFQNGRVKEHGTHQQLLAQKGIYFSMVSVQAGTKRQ
Sequence of ATP-dependent translocase ABCB1 (P08183 whole entry): as above

Broadly, the pIC50 is the IC50 on a negative log10 scale, so that one unit is a factor of ten. On to `N#Cc1c2n(c3c(SCc4ccc(Cl)cc4)ncnc13)CCCCC2`, for which the pIC50 in series [1] was less than 4.30.

What is called inhibition is the relative decrease from the control value, in per cent. Read a high inhibition as strong suppression. Turning to `N#Cc1c2n(c3c(=O)n(-c4ccc(F)cc4)cnc13)CCC2`, the pIC50 is 6.19 in the series on MCF7; 6.14 with A2780; 6.32 in the series on HT-29; 4.95 in the series with MRC5; 4.99 in the series with NCI/ADR-RES [5]; 5.66 in the series with NCI/ADR-RES [6]. Further, the figures for the selectivity ratio in [2], in series [3] and in series [4] were 17.3, 15.6 and 23.4, respectively. In addition, the “fold change (FC)” value in [7] is 8.24. The CI with NCI/ADR-RES [8] is more than 100; in the series on NCI/ADR-RES [9], 14.6; in the series on NCI/ADR-RES [10], 0.6; with NCI/ADR-RES [11] it was more than 100; in the series with NCI/ADR-RES [12] it was 1.089; with NCI/ADR-RES [13] it was 0.12. Further, the CI is more than 100 in the series with NCI/ADR-RES [14], 2.647 with NCI/ADR-RES [15] and 0.1 in the series with NCI/ADR-RES [16]. Besides, the “inhibition (INH)” value in series [17] is “Dose-Dependent Effect”. This compound displayed an inhibition at 72 h, 0.125 µM against P-gp (ABCB1) [18] of 9%. The same compound yielded an inhibition at 72 h, 0.25 µM against P-gp (ABCB1) [19] of 65%. Besides, the inhibition at 72 h, 0.5 µM against P-gp (ABCB1) [20] was determined as 91%. The same compound displayed an inhibition at 72 h, 1 µM at P-gp (ABCB1) [21] of 92%.
